Experimental data reported in article doi:10.1101/2024.09.17.613365, “Type-II kinase inhibitors that target Parkinson’s Disease-associated LRRK2” (bioRxiv, 2025).

What was measured:
[1] = target: T1, leucine-rich repeat kinase 2 (LRRK2) (Homo sapiens, UniProt Q5S007); experiment: PhosphoSense kinase activity assay; DSF ΔTm […] K on LRRK2^KW; type: biochemical
T1 construct: LRRK2^RCKW (ROC, COR, Kinase, WD40)
T1 sequence (Q5S007 1327-2527 limits assumed): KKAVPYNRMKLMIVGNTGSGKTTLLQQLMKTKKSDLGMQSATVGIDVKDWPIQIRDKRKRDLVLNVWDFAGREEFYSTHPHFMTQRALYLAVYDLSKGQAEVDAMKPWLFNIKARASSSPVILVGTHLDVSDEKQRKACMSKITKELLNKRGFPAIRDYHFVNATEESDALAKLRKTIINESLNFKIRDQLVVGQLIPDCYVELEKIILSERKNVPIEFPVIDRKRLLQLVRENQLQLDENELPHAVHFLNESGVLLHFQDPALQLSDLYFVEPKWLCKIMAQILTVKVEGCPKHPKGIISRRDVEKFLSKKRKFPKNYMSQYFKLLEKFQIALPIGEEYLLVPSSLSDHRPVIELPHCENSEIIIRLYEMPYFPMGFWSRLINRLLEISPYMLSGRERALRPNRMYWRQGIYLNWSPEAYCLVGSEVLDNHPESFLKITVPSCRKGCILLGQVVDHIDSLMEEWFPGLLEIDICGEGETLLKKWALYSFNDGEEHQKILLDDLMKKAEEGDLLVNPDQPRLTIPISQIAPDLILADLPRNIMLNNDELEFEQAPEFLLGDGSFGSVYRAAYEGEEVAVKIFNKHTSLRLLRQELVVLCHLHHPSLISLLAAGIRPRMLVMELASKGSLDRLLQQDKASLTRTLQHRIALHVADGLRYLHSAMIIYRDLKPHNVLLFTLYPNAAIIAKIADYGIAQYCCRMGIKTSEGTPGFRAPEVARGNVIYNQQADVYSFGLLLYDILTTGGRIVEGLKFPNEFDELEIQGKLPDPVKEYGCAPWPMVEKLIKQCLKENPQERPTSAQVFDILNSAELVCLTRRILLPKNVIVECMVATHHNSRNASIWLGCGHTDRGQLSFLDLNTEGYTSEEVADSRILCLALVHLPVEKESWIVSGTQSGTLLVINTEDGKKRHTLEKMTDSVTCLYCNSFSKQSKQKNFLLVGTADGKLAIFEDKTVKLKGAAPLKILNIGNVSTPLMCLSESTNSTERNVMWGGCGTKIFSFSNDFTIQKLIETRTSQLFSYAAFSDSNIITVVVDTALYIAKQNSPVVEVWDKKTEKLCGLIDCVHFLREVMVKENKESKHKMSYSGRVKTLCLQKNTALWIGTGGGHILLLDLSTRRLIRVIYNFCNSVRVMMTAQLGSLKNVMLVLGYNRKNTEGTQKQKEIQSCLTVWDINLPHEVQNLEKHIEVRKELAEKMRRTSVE

[2] = target: T1, leucine-rich repeat kinase 2 (LRRK2); experiment: biochemical; parameters: PhosphoSense kinase activity assay, purified LRRK2 RCKW
Description: (§1) Next, we evaluated the potency and selectivity of these new compounds. We performed on-target screening by measuring the thermostability increase of LRRK2^KW in the presence of the new compounds using DSF (Supporting Information Table S2). We also determined the in vitro IC50 (median inhibitory concentration) values for each of the new compounds by purifying LRRK2^RCKW and measuring its kinase activity in the presence of our new inhibitors using the PhosphoSense® activity assay from AssayQuant (Supporting Information Table S2). Finally, we estimated the kinome selectivity of each compound by measuring the thermostability increase of approximately 100 representative kinases in the presence of the compounds via DSF (Supporting Information Table S2).

LRRK2^KW [3] = target: T2, LRRK2^KW (Homo sapiens, UniProt Q5S007); parameters: DSF thermal shift of purified LRRK2 KW construct with compound; conditions: binder
T2 construct: Kinase and WD40 domain construct (KW)
T2 sequence (Q5S007 whole entry, the tested form may be a part): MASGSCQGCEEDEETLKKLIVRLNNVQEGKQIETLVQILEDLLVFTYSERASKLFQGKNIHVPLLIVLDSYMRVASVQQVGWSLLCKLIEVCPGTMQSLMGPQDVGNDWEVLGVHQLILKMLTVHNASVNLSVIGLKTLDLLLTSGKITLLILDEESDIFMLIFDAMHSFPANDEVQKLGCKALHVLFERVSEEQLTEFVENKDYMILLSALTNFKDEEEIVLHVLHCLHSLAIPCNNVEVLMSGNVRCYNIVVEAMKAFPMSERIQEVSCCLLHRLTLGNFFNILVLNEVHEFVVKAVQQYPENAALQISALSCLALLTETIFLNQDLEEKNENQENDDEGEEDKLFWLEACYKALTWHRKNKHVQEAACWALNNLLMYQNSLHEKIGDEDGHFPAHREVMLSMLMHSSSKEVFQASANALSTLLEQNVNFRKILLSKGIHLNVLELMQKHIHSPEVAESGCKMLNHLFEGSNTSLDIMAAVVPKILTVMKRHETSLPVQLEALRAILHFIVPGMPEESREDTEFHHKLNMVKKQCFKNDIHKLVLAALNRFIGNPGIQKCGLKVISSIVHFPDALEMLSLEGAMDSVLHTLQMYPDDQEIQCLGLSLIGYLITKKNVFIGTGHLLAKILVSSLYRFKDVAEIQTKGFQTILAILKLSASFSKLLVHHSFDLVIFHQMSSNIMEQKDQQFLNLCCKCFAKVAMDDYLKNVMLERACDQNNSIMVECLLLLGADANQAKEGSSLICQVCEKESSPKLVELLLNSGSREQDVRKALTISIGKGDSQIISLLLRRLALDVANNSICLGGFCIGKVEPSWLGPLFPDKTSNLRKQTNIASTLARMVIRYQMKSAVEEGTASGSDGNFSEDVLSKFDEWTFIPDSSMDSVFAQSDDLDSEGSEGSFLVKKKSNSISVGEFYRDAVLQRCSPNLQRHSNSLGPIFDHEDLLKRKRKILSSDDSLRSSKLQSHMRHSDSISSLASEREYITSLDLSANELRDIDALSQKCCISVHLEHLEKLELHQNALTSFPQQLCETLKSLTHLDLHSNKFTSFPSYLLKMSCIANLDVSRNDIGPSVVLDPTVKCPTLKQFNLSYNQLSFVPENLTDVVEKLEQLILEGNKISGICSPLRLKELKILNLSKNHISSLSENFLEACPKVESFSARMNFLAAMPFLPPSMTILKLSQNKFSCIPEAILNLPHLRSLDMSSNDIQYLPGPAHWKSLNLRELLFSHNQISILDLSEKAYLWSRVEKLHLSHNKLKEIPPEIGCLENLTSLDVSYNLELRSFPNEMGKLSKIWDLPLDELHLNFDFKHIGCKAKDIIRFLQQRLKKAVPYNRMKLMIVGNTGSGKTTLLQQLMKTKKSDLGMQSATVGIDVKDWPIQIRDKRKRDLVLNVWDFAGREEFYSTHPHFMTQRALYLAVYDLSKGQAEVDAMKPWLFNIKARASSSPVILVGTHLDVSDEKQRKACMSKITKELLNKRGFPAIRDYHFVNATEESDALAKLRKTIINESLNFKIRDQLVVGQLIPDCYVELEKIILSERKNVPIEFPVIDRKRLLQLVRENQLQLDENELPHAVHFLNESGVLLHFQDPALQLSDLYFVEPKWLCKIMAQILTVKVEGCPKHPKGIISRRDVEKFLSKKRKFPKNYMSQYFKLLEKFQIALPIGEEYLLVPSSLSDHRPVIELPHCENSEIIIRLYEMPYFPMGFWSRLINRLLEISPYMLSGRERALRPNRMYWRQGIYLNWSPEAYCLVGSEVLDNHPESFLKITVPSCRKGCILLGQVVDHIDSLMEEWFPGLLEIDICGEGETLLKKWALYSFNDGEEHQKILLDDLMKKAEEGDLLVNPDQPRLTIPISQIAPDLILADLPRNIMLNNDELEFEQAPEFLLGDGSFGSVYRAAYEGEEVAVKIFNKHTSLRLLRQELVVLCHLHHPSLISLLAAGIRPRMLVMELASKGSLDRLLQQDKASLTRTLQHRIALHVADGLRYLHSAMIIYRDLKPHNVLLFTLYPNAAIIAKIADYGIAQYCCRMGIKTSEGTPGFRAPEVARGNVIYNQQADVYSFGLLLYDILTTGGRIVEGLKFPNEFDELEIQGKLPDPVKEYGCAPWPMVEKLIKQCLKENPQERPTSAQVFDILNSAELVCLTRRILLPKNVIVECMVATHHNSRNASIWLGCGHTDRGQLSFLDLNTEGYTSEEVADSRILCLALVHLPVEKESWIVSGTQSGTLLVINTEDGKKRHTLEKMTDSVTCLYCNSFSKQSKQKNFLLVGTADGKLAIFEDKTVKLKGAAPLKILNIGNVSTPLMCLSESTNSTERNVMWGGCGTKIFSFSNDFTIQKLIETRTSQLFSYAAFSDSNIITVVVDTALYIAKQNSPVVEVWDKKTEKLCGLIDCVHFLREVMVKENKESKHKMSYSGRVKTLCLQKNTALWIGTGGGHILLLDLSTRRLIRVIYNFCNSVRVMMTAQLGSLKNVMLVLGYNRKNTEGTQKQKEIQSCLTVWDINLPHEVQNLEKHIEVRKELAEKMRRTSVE
Description: as §1, with “Additionally, we screened a library of published type-II inhibitors to identify those that bind to LRRK2^KW (a Kinase and WD40 domain construct of LRRK2) with high affinity. […] Next,” for “Next,”

[4] = target: T1, leucine-rich repeat kinase 2 (LRRK2); experiment: biochemical; parameters: PhosphoSense (AssayQuant) kinase activity assay with purified LRRK2 RCKW
Description: as §1

LRRK2^KW [5] = target: T2, LRRK2^KW; parameters: Differential scanning fluorometry, thermal stabilization of LRRK2 KW by compound; conditions: binder
Description: Next, we evaluated the potency and selectivity of these new compounds. We performed on-target screening by measuring the thermostability increase of LRRK2^KW in the presence of the new compounds using DSF (Supporting Information Table S2). We also determined the in vitro IC50 (median inhibitory concentration) values for each of the new compounds by purifying LRRK2^RCKW and measuring its kinase activity in the presence of our new inhibitors using the PhosphoSense® activity assay from AssayQuant (Supporting Information Table S2). Finally, we estimated the kinome selectivity of each compound by measuring the thermostability increase of approximately 100 representative kinases in the presence of the compounds via DSF (Supporting Information Table S2). […] Additionally, we screened a library of published type-II inhibitors to identify those that bind to LRRK2^KW (a Kinase and WD40 domain construct of LRRK2) with high affinity.

[6] = target: T1, leucine-rich repeat kinase 2 (LRRK2); experiment: PhosphoSense kinase activity assay; DSF ΔTm […] K on LRRK2^KW; type: biochemical; remark: listed apart in the source

## Cc1cc(N(C(=O)C2(C(N)=O)CC2)c2cccc(-c3c[nH]c4ncnc(N5CCOCC5)c34)c2)ccc1F [compound 20, 20]
[1]
  IC50: 110 ± 11 nM

## CC(C)(C)c1cc(NC(=O)Nc2ccc3cn[nH]c3c2)n(-c2ccc3ncccc3c2)n1 [compound 53, 1-(3-(tert-butyl)-1-(quinolin-6-yl)-1H-pyrazol-5-yl)-3-(1H-indazol-6-yl)urea]
[2]; read-out: IC50 [nM]
  IC50: > 15000 nM
LRRK2^KW [3]
  ∆Tm [K]: 2.0 K

## NC(=O)C1(C(=O)N(c2cccc(-c3c[nH]c4ncnc(N5CCOCC5)c34)c2)c2cccc3c2CCC3)CC1 [compound 11, N-(2,3-dihydro-1H-inden-4-yl)-N-(3-(4-morpholino-7H-pyrrolo[2,3-d]pyrimidin-5-yl)phenyl)cyclopropane-1,1-dicarboxamide]
[4]
  IC50: 989 ± 32 nM
LRRK2^KW [5]
  ΔTm [K]: 9.2 K

## Cc1ccc(C(=O)Nc2ccc(CN3CCN(C)CC3)c(C(F)(F)F)c2)cc1C#Cc1ccc2cn[nH]c2c1 [compound 52, 3-((1H-indazol-6-yl)ethynyl)-4-methyl-N-(4-((4-methylpiperazin-1-yl)methyl)-3-(trifluoromethyl)phenyl)benzamide]
[2]; read-out: IC50
  IC50: 897 ± 120 nM
LRRK2^KW [3]
  ∆Tm [K]: 10.0 K

## CN1CCc2cc(N(C(=O)C3(C(N)=O)CC3)c3cccc(-c4c[nH]c5ncnc(N6CCOCC6)c45)c3)ccc2C1 [compound 10, N-(2-methyl-1,2,3,4-tetrahydroisoquinolin-6-yl)-N-(3-(4-morpholino-7H-pyrrolo[2,3-d]pyrimidin-5-yl)phenyl)cyclopropane-1,1-dicarboxamide]
[4]
  IC50: 3180 ± 134 nM
LRRK2^KW [5]
  ΔTm [K]: 4.3 K

## Cc1ccc(-n2nc(C(C)(C)C)cc2NC(=O)Nc2ccc3cn[nH]c3c2)cc1 [compound 54, 1-(3-(tert-butyl)-1-(p-tolyl)-1H-pyrazol-5-yl)-3-(1H-indazol-6-yl)urea]
[2]; read-out: IC50 [nM]
  IC50: > 15000 nM
LRRK2^KW [3]
  ∆Tm [K]: 2.0 K

## NC(=O)C1(C(=O)N(c2cccc(-c3c[nH]c4ncnc(N5CCOCC5)c34)c2)c2ccc(F)c(Br)c2F)CC1 [compound 26, RN222]
[6]
  IC50: 134 ± 5 nM
